Assays:
Lck = target: T1, Lck (Homo sapiens, UniProt P06239); assay: KINOMEscan dissociation constant, Lck; type: binding
T1 construct: purchased DiscoveRx Corporation (LeadHunter Discover Services, KINOMEscan)
Method: (§1) Kinase enzyme binding activities of compounds disclosed herein may be determined using a proprietary assay which measures active site-directed competition binding to an immobilized ligand (Fabian, M. A. et al., Nature Biotechnol., 2005, 23:329-336). These assays may be conducted by DiscoverX (formerly Ambit; San Diego, Calif.). The percentage inhibition produced by incubation with a test compound may be calculated relative to the non-inhibited control.

PBMCs [1] = assay: IFN gamma release in CD3/CD28 stimulated PBMC cells; type: cell-based; conditions: Homo sapiens, read-out: IC50 Values for Inhibition of Cytokine Release PBMCs IFNγ
Method: (§2) PBMCs from healthy subjects are separated from whole blood using a density gradient (Lymphoprep, Axis-Shield Healthcare). Cells are added to a 96 well plate pre-coated with a mixture of CD3/CD28 monoclonal antibodies (0.3 μg/mL eBioscience and 3 μg/mL BD Pharmingen respectively). Compound at the desired concentration is then added to the wells and the plate left for 3 days under normal tissue culture conditions. Supernatants are harvested and IL-2 and IFN gamma release determined by Sandwich ELISA (Duo-set, R&D System). The IC50 is determined from the dose response curve.

GSK3α = target: T2, GSK3α (Homo sapiens, UniProt P49840); assay: GSK3α enzyme inhibition (Method 2), FRET Z-LYTE; type: biochemical
T2 construct: purchased Invitrogen
T2 sequence (P49840 whole entry): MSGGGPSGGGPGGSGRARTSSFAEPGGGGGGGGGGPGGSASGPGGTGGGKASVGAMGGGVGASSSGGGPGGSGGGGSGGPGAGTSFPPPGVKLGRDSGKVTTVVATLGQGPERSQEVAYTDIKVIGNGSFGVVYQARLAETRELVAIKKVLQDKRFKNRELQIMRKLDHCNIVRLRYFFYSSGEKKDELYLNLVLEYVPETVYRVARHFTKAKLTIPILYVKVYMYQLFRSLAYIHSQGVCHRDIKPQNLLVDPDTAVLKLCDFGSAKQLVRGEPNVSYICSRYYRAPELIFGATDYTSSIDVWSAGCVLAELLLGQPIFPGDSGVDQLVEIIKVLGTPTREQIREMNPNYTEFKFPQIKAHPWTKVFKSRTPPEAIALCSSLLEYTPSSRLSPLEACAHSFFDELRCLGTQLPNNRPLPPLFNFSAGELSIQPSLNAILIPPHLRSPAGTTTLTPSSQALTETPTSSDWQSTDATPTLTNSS
Method: (§3) The enzyme inhibitory activities of compounds disclosed herein are determined by FRET using synthetic peptides labelled with both donor and acceptor fluorophores (Z-LYTE, Invitrogen Ltd., Paisley, UK).
The inhibitory activities of compounds of the invention against the GSK 3α enzyme isoform (Invitrogen), are evaluated by determining the level of activation/phosphorylation of the target peptide. The GSK3-α protein (500 ng/mL, 2.5 μL) is mixed with the test compound (2.5 μL at either 4 μg/mL, 0.4 μg/mL, 0.04 μg/mL, or 0.004 μg/mL) for 2 hr at RT. The FRET peptide (8 μM, 2.5 μL), which is a phosphorylation target for GSK3α, and ATP (40 μM, 2.5 μL) are then added to the enzyme/compound mixture and the resulting mixture incubated for 1 hr. Development reagent (protease, 5 μL) is added for 1 hr prior to detection in a fluorescence microplate reader (Varioskan® Flash, ThermoFisher Scientific).
(§4) In all cases, the site-specific protease cleaves non-phosphorylated peptide only and eliminates the FRET signal. Phosphorylation levels of each reaction are calculated using the ratio of coumarin emission (donor) over fluorescein emission (acceptor), for which high ratios indicate high phosphorylation and low ratios indicate low phosphorylation levels.
This method follows the same steps as Method 1 above, but utilises a shorter period of mixing of the test compound (105 minutes instead of 2 hours) with the GSK3-α protein.

Jurkat cells = assay: Cell cytotoxicity assay (Jurkat cell viability); type: cell-based, human; conditions: 24 hours
Method: 1×10^5 Jurkat cells (immortalised human T lymphocytes) are added to the appropriate number of wells of a 96 well plate in 100 μL of media (RPMI supplemented with 10% foetal bovine serum). 1 μL of DMSO control (final concentration 1.0% v/v) or test compound (final concentration 20, 5 or 1 μg/mL) is added to the wells and incubated at 37° C., 5% CO2. After 24 hours, the plate is centrifuged at 1200 rpm for 3 minutes and the supernatant discarded. Cells are then resuspended in 150 μL (final concentration 7.5 μg/mL) of propidium iodide (PI) in PBS and incubated at 37° C., 5% CO2 for 15 minutes. After 15 minutes, cells are analysed by flow cytometry (BD accuri) using the FL3 window. The % viability is calculated as the % of cells that are PI negative in the test wells normalised to the DMSO control.

PBMCs [2] = assay: LPS-induced IL-8 release in PBMC cells; type: cell-based; conditions: Homo sapiens, LPS-stimulated PBMCs, read-out: IC50 Values for Inhibition of Cytokine Release PBMCs IL-8
Method in brief: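 Healthy-donor PBMCs isolated by density gradient were pretreated with compound for 2 h, then stimulated with 1 ng/mL LPS (E. coli 0111:B4) for 24 h at 37° C., 5% CO2. IL-8 and TNFα in supernatants measured by sandwich ELISA.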

Syk [3] = target: T3, Syk (Homo sapiens, UniProt P43405); assay: Syk enzyme inhibition, FRET Z-LYTE; type: biochemical
T3 construct: purchased Invitrogen
Method: as §3
(§5) The inhibitory activities of compounds of the invention against c-Src and Syk enzymes (Invitrogen), are evaluated in a similar fashion to that described hereinabove. The relevant enzyme (3000 ng/mL or 2000 ng/mL respectively, 2.5 μL) is incubated with the test compound (either 4 μg/mL, 0.4 μg/mL, 0.04 μg/mL, or 0.004 μg/mL, 2.5 μL each) for 2 hr at RT. The FRET peptides (8 μM, 2.5 μL), and appropriate ATP solutions (2.5 μL, 800 μM for c-Src, and 60 μM ATP for Syk) are then added to the enzymes/compound mixtures and incubated for 1 hr. Development reagent (protease, 5 μL) is added for 1 hr prior to detection in a fluorescence microplate reader (Varioskan® Flash, ThermoFisher Scientific).
as §4

PBMCs [4] = assay: IL-2 release in CD3/CD28 stimulated PBMC cells; type: cell-based; conditions: Homo sapiens, read-out: IC50 Values for Inhibition of Cytokine Release PBMCs IL-2
Method: as §2

p38 MAPKα [5] = target: T4, p38 MAPKα (Homo sapiens, UniProt Q16539); assay: p38 MAPKα enzyme inhibition (Method 2), FRET Z-LYTE; type: biochemical
T4 construct: purchased Invitrogen
T4 sequence (Q16539 whole entry): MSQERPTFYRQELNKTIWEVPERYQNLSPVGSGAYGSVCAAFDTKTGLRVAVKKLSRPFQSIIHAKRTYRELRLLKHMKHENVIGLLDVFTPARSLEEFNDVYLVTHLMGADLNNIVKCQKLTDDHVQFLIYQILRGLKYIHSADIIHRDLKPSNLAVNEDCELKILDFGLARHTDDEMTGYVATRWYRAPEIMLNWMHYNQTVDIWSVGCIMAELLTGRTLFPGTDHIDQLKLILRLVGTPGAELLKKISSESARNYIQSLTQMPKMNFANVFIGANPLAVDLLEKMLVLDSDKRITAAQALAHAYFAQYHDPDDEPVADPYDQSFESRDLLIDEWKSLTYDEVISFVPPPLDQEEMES
Method: as §3
The inhibitory activities of test compounds against the p38 MAPKα isoform (MAPK14: Invitrogen), are evaluated indirectly by determining the level of activation/phosphorylation of the down-stream molecule, MAPKAP-K2. The p38 MAPKα protein (80 ng/mL, 2.5 μL) is mixed with the test compound (2.5 μL of either 4 μg/mL, 0.4 μg/mL, 0.04 μg/mL or 0.004 μg/mL) for 2 hr at RT. […] The mixture is incubated for 1 hr at RT. Development reagent (protease, 5 μL) is added for 1 hr prior to detection in a fluorescence microplate reader (Varioskan® Flash, ThermoFisher Scientific).
This method follows the same steps as Method 1 above, but utilises a higher concentration of the p38 MAPKα protein (2.5 μL of 200 ng/mL protein instead of 2.5 μL of 80 ng/mL protein) for mixing with the test compound.
as §4

Syk [6] = target: T3, Syk; assay: KINOMEscan dissociation constant, Syk; type: binding
Method: as §1

c-Src = target: T5, c-Src (Homo sapiens, UniProt P12931); assay: c-Src enzyme inhibition, FRET Z-LYTE; type: biochemical
T5 construct: purchased Invitrogen
T5 sequence (P12931 whole entry): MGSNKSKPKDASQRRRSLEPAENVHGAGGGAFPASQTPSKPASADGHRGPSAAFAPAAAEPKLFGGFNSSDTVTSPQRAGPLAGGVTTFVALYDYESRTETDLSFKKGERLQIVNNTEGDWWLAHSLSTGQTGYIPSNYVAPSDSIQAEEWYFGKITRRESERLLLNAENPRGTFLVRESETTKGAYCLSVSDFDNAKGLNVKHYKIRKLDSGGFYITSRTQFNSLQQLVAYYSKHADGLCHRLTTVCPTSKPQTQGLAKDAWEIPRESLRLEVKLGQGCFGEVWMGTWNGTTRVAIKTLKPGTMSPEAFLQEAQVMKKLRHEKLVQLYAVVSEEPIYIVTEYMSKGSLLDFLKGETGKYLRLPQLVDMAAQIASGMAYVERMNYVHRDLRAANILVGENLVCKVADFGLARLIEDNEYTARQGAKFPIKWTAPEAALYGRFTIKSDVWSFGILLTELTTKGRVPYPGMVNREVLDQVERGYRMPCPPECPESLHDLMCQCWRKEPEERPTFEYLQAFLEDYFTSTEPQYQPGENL
Method: as §3, §5, §4

p38 MAPKα [7] = target: T4, p38 MAPKα; assay: KINOMEscan dissociation constant, p38 MAPKα; type: binding
Method: as §1

PBMCs [8] = assay: Cell mitosis assay in PBMCs; type: cell-based, human
Method: Peripheral blood mononucleocytes (PBMCs) from healthy subjects are separated from whole blood (Quintiles, London, UK) using a density gradient (Histopaque®-1077, Sigma-Aldrich, Poole, UK). The PBMCs (3 million cells per sample) are subsequently treated with 2% PHA (phytohaemagglutinin, Sigma-Aldrich, Poole, UK) for 48 hr, followed by a 20 hr exposure to varying concentrations of test compounds. At 2 hr before collection, PBMCs are treated with demecolcine (0.1 μg/mL; Invitrogen, Paisley, UK) to arrest cells in metaphase. To observe mitotic cells, PBMCs are permeabilised and fixed by adding Intraprep (50 μL; Beckman Coulter, France), and stained with anti-phospho-histone 3 (0.26 ng/L; #9701; Cell Signalling, Danvers, Mass.) and propidium iodide (1 mg/mL; Sigma-Aldrich, Poole, UK) as previously described (Muehlbauer P. A. and Schuler M. J., Mutation Research, 2003, 537:117-130). Fluorescence is observed using an ATTUNE flow cytometer (Invitrogen, Paisley, UK), gating for lymphocytes.

T1 sequence (P06239 whole entry): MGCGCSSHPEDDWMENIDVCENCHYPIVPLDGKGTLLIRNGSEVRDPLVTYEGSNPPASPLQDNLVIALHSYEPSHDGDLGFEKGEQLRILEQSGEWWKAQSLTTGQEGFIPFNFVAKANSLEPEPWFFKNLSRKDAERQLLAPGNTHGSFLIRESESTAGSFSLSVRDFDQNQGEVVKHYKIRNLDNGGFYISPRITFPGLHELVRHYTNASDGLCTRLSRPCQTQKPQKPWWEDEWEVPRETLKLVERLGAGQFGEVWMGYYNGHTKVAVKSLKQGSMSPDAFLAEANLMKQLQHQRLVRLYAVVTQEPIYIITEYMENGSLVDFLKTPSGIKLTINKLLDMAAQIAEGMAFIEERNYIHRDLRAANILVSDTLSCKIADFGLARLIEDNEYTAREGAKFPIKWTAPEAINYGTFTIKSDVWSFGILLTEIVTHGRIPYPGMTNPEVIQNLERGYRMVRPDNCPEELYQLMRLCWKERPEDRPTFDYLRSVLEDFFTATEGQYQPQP

| Structure (SMILES) | Kd (Lck) [nM] | IC50 (PBMCs [1]) [nM] | IC50 (GSK3α) [nM] | % Viability at 1 μg/mL (Jurkat cells) [%] | % Viability at 5 μg/mL (Jurkat cells) [%] | % Viability at 20 μg/mL (Jurkat cells) [%] | IC50 (PBMCs [2]) [nM] | IC50 (Syk [3]) [nM] | IC50 (PBMCs [4]) [nM] | IC50 (p38 MAPKα [5]) [nM] | Kd (Syk [6]) [nM] | IC50 (c-Src) [nM] | Kd (p38 MAPKα [7]) [nM] | inhibition at 5 µg/mL (PBMCs [8]; Homo sapiens, PBMC, PBMCs, 5 μg/mL) [%] | impact on cell division (mitosis) in PBMCs, in words (PBMCs [8]; assay (g), compared with Reference Compound A) |
| --- | --- | --- | --- | --- | --- | --- | --- | --- | --- | --- | --- | --- | --- | --- | --- |
| COc1cc(Nc2ncc3cc(-c4cc(C(=O)Nc5cc(C(C)(C)C)cc(C(N)=O)c5OC)ccc4C)ccc3n2)cc(C(=O)NCCN2CCOCC2)c1 [Example 3, N-(5-(tert-Butyl)-3-carbamoyl-2-methoxyphenyl)-3-(2-((3-methoxy-5-((2-morpholinoethyl)-carbamoyl)phenyl)amino)quinazolin-6-yl)-4-methylbenzamide] | 6.7 | 18.4 | > 13100 | 100.4 | 82.9 | 77.5 | 8 | 781 | 16.5 | 12 | 50 | 18 | 3.9 | 66.3 | markedly less active than the Reference Compound A |
| COc1cc(Nc2ncc3cc(-c4cc(C(=O)Nc5cc(C(C)(C)C)cc(NS(C)(=O)=O)c5OC)ccc4C)ccc3n2)cc(C(=O)NCCN2CCOCC2)c1 [Example 5, N-(5-(tert-butyl)-2-methoxy-3-(methylsulfonamido)phenyl)-3-(2-((3-methoxy-5-((2-morpholinoethyl)carbamoyl)phenyl)amino)quinazolin-6-yl)-4-methylbenzamide] |  | 30.4 | > 12600 | 116.5 | 48.8 | 44.6 | 10.3 |  | 38.7 |  |  |  |  |  |  |
| COc1c(NC(=O)c2ccc(C)c(-c3ccc4nc(Nc5cc(OS(C)(=O)=O)cc(C(=O)NCCN6CCOCC6)c5)ncc4c3)c2)cc(C(C)(C)C)cc1NS(C)(=O)=O [Example 10, 3-((6-(5-((5-(tert-Butyl)-2-methoxy-3-(methylsulfonamido)phenyl)carbamoyl)-2-methylphenyl)-quinazolin-2-yl)amino)-5-((2-morpholinoethyl)carbamoyl)phenyl methanesulfonate] |  | 13.1 |  | 91.5 | 82.5 | 77.8 | 3.5 | > 1160 |  | 24 |  | 20 |  |  |  |
| COc1cc(Nc2ncc3cc(-c4cc(C(=O)Nc5cc(C(C)(C)C)cc(NS(C)(=O)=O)c5OC)ccc4C)ccc3n2)ccc1C(=O)N1CCS(=O)(=O)CC1 [Example 12, N-(5-(tert-Butyl)-2-methoxy-3-(methylsulfonamido)phenyl)-3-(2-((4-(1,1-dioxidothiomorpholine-4-carbonyl)-3-methoxyphenyl)amino)quinazolin-6-yl)-4-methylbenzamide] |  | 12.6 |  | 86.4 | 79.3 | 81.0 | 2.3 | 190 |  | 8 |  | 4 |  |  |  |
